Measurements as given in the supplement of paper PMC10307832.

What was measured:
Assay in all cases: relative viability (nuclei count vs DMSO), 5 days (fraction); higher = more cells survive
[1] = compound: CC1CC(=O)N(C2=CN=C(N=C2N1C3CCCC3)NC4=C(C=C(C=C4)C(=O)NC5CCN(CC5)C)OC)C [NPK76-II-72-1] + Nc1ncn([C@H]2C[C@H](O)[C@@H](CO)O2)c(=O)n1 [Decitabine] (partner 2 µM)
Method in brief: (§1)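 Lung cancer cell lines, seeded in 1536-well plates, were treated the following day by pin tool with a single drug or with five library-drug doses (not always all listed) in √10 steps on top of a fixed anchor-drug dose. Cells were fixed and nuclei stained in one step after 5 days, and nuclei were counted. Relative viability is the nuclei count for treated wells divided by that for vehicle wells, reported as medians of duplicate plates.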

[2] = compound: CC1CC(=O)N(C2=CN=C(N=C2N1C3CCCC3)NC4=C(C=C(C=C4)C(=O)NC5CCN(CC5)C)OC)C [NPK76-II-72-1] + CC(C)C[C@H](NC(=O)[C@H](Cc1ccccc1)NC(=O)c1cnccn1)B(O)O [Bortezomib] (partner 0.002 µM)
Method in brief: as §1

[3] = compound: CC[C@@H]1C(=O)N(C)c2cnc(Nc3ccc(C(=O)NC4CCN(C)CC4)cc3OC)nc2N1C1CCCC1 [BI-2536] + CCNC(=O)c1noc(-c2cc(C(C)C)c(O)cc2O)c1-c1ccc(CN2CCOCC2)cc1 [Luminespib] (partner 0.01 µM)
Method in brief: as §1

[4] = compound: CC[C@@H]1C(=O)N(C)c2cnc(Nc3ccc(C(=O)NC4CCN(C)CC4)cc3OC)nc2N1C1CCCC1 [BI-2536] + Cc1nc(Nc2ncc(C(=O)Nc3c(C)cccc3Cl)s2)cc(N2CCN(CCO)CC2)n1 [Dasatinib] (partner 0.075 µM)
Method in brief: as §1

Row | Cell Line | relative viability ([1]; first compound 0.01 µM) | relative viability ([1]; first compound 0.03162 µM) | relative viability ([1]; first compound 0.1 µM) | relative viability ([1]; first compound 0.3162 µM) | relative viability ([1]; first compound 1 µM) | relative viability ([2]; first compound 0.01 µM) | relative viability ([2]; first compound 0.03162 µM) | relative viability ([2]; first compound 0.1 µM) | relative viability ([2]; first compound 0.3162 µM) | relative viability ([2]; first compound 1 µM) | relative viability ([3]; first compound 0.01 µM) | relative viability ([3]; first compound 0.03162 µM) | relative viability ([3]; first compound 0.1 µM) | relative viability ([3]; first compound 0.3162 µM) | relative viability ([3]; first compound 1 µM) | relative viability ([4]; first compound 0.01 µM) | relative viability ([4]; first compound 0.03162 µM) | relative viability ([4]; first compound 0.1 µM) | relative viability ([4]; first compound 0.3162 µM) | relative viability ([4]; first compound 1 µM)
1 | LOU-NH91 | 0.794 | 0.849 | 0.793 | 0.735 | 0.875 | 0.488 | 0.483 | 0.463 | 0.432 | 0.35 | 0.372 | 0.345 | 0.306 | 0.279 | 0.267 | 0.599 | 0.539 | 0.52 | 0.289 | 0.256
2 | LU99A | 0.897 | 0.833 | 0.75 | 0.928 | 0.916 | 1.17 | 1.28 | 1.23 | 0.952 | 1.3 | 0.251 | 0.254 | 0.194 | 0.159 | 0.241 | 0.47 | 0.593 | 0.178 | 0.188 | 0.159
3 | LXF-289 | 0.345 | 0.374 | 0.364 | 0.383 | 0.357 | 1.02 | 1.06 | 0.955 | 1.04 | 1.02 | 0.624 | 0.533 | 0.319 | 0.0739 | 0.0875 | 0.274 | 0.235 | 0.0786 | 0.047 | 0.0368
4 | NCI-H23 | 0.31 | 0.315 | 0.264 | 0.405 | 0.306 | 0.856 | 1.22 |  | 1.06 | 1.12 | 0.231 | 0.212 | 0.182 | 0.225 | 0.236 | 0.803 | 1.02 | 0.285 | 0.126 | 0.107
5 | NCI-H322M | 0.675 | 0.711 | 0.714 | 0.743 | 0.77 | 1.17 | 1.3 | 1.24 | 1.39 | 1.36 | 0.844 | 0.509 | 0.439 | 0.409 | 0.303 | 0.286 | 0.248 | 0.259 | 0.361 | 0.288
6 | NCI-H441 | 0.226 | 0.222 | 0.233 | 0.222 | 0.252 | 0.872 | 0.312 | 0.319 | 0.527 | 0.451 | 0.296 | 0.32 | 0.288 | 0.237 | 0.271 | 0.434 | 0.244 | 0.195 | 0.164 | 0.179
7 | NCI-H460 | 0.432 | 0.492 | 0.521 | 0.455 | 0.47 | 1.02 | 1.26 | 1.11 | 1.01 | 1.18 | 0.0287 | 0.0394 | 0.0295 | 0.0298 | 0.0252 | 0.483 | 0.635 | 0.368 | 0.0145 | 0.0151
8 | NCI-H520 | 0.455 | 0.575 | 0.589 | 0.496 | 0.586 | 0.731 | 0.766 | 0.385 | 0.514 | 0.544 | 0.242 | 0.199 | 0.194 | 0.206 | 0.214 | 0.164 | 0.204 | 0.194 | 0.153 | 0.13
9 | NCI-H596 | 1.02 | 1.19 | 1.01 | 1 | 1.01 | 0.838 |  | 0.999 | 1 | 0.966 | 1.02 | 1.12 | 0.986 | 0.37 | 0.29 | 0.574 | 0.673 | 0.449 | 0.25 | 0.273
10 | NCI-H647 | 0.379 | 0.364 | 0.418 | 0.367 | 0.454 | 0.847 | 1.1 |  | 0.853 | 1.05 | 0.13 | 0.193 | 0.141 | 0.0872 | 0.116 | 0.156 | 0.184 | 0.0428 | 0.0374 | 0.039
11 | NCI-H650 | 0.316 | 0.33 | 0.358 | 0.311 | 0.299 | 0.862 | 0.678 | 0.729 |  | 1.02 | 0.728 | 0.622 | 0.21 | 0.13 | 0.103 | 0.44 | 0.511 | 0.3 | 0.158 | 0.0998
12 | NCI-H661 | 0.582 | 0.553 | 0.589 | 0.458 | 0.56 | 0.912 | 0.793 | 0.688 | 0.647 | 0.854 | 0.944 | 0.936 | 0.347 | 0.296 | 0.257 | 0.851 | 0.307 |  |  | 0.367
13 | NCI-H727 | 0.874 | 0.888 | 0.801 | 0.785 | 0.764 | 0.881 | 0.981 | 0.938 | 0.9 | 0.869 | 0.589 | 0.324 | 0.263 | 0.4 | 0.201 | 0.442 | 0.312 | 0.319 | 0.322 | 0.227
14 | NCI-H838 | 0.495 | 0.458 | 0.455 | 0.466 | 0.476 | 0.768 | 0.885 | 0.988 | 0.771 | 0.715 | 0.357 | 0.307 | 0.146 | 0.125 | 0.114 | 0.281 | 0.291 | 0.235 | 0.134 | 0.164
15 | NCI-H1355 | 0.349 | 0.359 | 0.338 | 0.315 | 0.344 | 1.06 | 1.12 | 1.03 | 1.13 | 1.19 | 0.612 | 0.547 | 0.546 | 0.2 | 0.187 | 0.694 | 0.78 | 0.359 | 0.23 | 0.199
16 | NCI-H1437 | 0.579 | 0.523 | 0.531 | 0.558 | 0.641 | 0.473 | 0.445 | 0.425 | 0.409 | 0.494 | 1.14 | 0.961 | 0.729 | 0.2 | 0.164 | 0.318 | 0.365 | 0.247 | 0.173 | 0.108
17 | NCI-H1650 | 0.377 | 0.43 | 0.435 | 0.423 | 0.347 | 0.211 | 0.191 | 0.183 | 0.218 | 0.211 | 0.188 | 0.166 | 0.21 | 0.183 | 0.198 | 0.341 | 0.321 | 0.18 | 0.159 | 0.12
18 | NCI-H1651 | 0.611 | 0.645 | 0.606 | 0.589 | 0.604 | 0.95 | 0.954 | 0.903 | 0.9 | 0.991 | 0.689 | 1.04 | 0.333 | 0.146 | 0.139 | 0.138 | 0.376 | 0.075 | 0.1 | 0.0509
19 | NCI-H1666 | 0.809 | 0.755 | 0.705 | 0.713 | 0.733 | 0.9 | 0.801 | 0.73 | 0.647 | 1.03 | 1.01 | 0.933 | 0.866 | 0.382 | 0.34 | 0.765 | 0.653 | 0.716 | 0.313 | 0.267
20 | NCI-H1734 | 0.49 | 0.456 | 0.479 | 0.479 | 0.525 | 0.879 | 0.96 | 0.969 | 0.779 | 1.13 | 0.22 | 0.157 | 0.137 | 0.122 | 0.133 | 0.439 | 0.462 | 0.167 | 0.145 | 0.131
21 | NCI-H1755 | 0.738 | 0.712 | 0.75 | 0.735 | 0.694 | 0.932 | 0.898 | 0.95 | 0.98 | 1.08 | 0.291 | 0.416 | 0.298 | 0.283 | 0.327 | 0.452 | 0.391 | 0.271 | 0.195 | 0.198
22 | NCI-H1792 |  | 0.683 | 0.42 | 0.534 | 0.515 | 1.06 | 0.961 | 0.829 | 0.879 | 1.07 | 0.485 | 0.432 | 0.388 | 0.229 | 0.28 | 0.762 | 0.916 | 0.885 | 0.498 | 0.34
23 | NCI-H1915 | 0.256 | 0.257 | 0.27 | 0.261 | 0.278 | 0.981 | 1.04 | 0.848 | 0.865 | 1.02 | 0.848 | 0.379 | 0.219 | 0.0675 | 0.0811 | 0.292 | 0.354 | 0.139 | 0.156 | 0.0656
24 | NCI-H1975 | 0.351 | 0.375 | 0.398 | 0.364 | 0.391 | 0.34 | 0.37 | 0.292 | 0.41 | 0.402 | 0.253 | 0.209 | 0.231 | 0.158 | 0.149 | 0.374 | 0.334 | 0.194 | 0.0936 | 0.0979
25 | NCI-H1993 | 0.604 | 0.624 | 0.61 | 0.474 | 0.678 | 1 | 1.09 | 0.775 | 0.729 | 0.873 | 0.856 | 0.747 | 0.521 | 0.602 | 0.515 | 0.688 | 0.577 | 0.51 | 0.514 | 0.485
26 | NCI-H2009 | 0.422 | 0.42 | 0.38 | 0.364 | 0.365 | 1.01 | 1.1 | 1.09 | 0.842 | 1.24 | 1.09 | 0.94 | 0.696 | 0.16 | 0.0773 | 0.256 | 0.248 | 0.169 | 0.137 | 0.0971
27 | NCI-H2023 | 0.203 | 0.218 | 0.225 | 0.215 | 0.227 | 0.968 | 1.09 | 1.15 | 1.01 | 1.23 | 0.774 | 0.755 | 0.107 | 0.0867 | 0.0902 | 0.587 | 0.463 | 0.346 | 0.0877 | 0.0801
